Reference: paper PMC9646841, “A bead-based GPCR phosphorylation immunoassay for high-throughput ligand profiling and GRK inhibitor screening” (Communications Biology, 2022)
Where “and” joins values, the source holds several entries; their conditions need not be identical. Equal entries are not always repeated. Square brackets hold non-standard residues; d marks the D form. Peptide text beside a SMILES is read from it. Cha = N[C@@H](CC1CCCCC1)C(=O)O; dCha = N[C@H](CC1CCCCC1)C(=O)O

Experiments:
Type in all cases: cell-based
C5a1 [1] = target: T1, C5a1 (Homo sapiens, UniProt P21730); assay: pT324/pS327-C5a1 7TM phosphorylation assay; settings: for Emax: read-out: Emax (% Control C028) pT324/pS327-C5a1
T1 construct: host or cells: Control-HEK293, ΔGRK2/3-HEK293, ΔGRK5/6-HEK293, stably expressing
T1 sequence (P21730 1-350): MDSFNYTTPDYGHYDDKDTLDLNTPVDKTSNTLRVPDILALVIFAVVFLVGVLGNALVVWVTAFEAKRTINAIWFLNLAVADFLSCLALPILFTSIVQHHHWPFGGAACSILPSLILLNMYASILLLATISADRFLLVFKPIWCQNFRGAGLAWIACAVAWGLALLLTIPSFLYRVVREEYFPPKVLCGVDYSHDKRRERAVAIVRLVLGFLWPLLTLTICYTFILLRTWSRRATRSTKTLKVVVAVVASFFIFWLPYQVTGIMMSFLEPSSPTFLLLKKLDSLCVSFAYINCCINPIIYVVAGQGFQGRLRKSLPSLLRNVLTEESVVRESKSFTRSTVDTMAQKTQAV

C5a1 [2] = target: T1, C5a1; assay: pS332/pS334-C5a1 7TM phosphorylation assay; settings: for Emax: read-out: Emax (% Control C028) pS332/pS334-C5a1
C5a1 [3] = target: T1, C5a1; assay: pS338/pT339-C5a1 7TM phosphorylation assay
[4] = Control-C5aR1-HEK293, C028 3 µM
[5] = Control-C5aR1-HEK293, C028 10 µM (concentration series)
[6] = ΔGRK2/3-C5aR1-HEK293, C028 0.01 µM
[7] = ΔGRK2/3-C5aR1-HEK293, C028 0.3 µM
[8] = ΔGRK2/3-C5aR1-HEK293, C028 10 µM (concentration series)
[9] = ΔGRK5/6-C5aR1-HEK293, C028 0.01 µM
[10] = ΔGRK5/6-C5aR1-HEK293, C028 0.1 µM
[11] = C028 0.01 µM, Control-C5aR1-HEK293
[12] = C028 0.01 µM, ΔGRK2/3-C5aR1-HEK293
[13] = C028 0.01 µM, ΔGRK5/6-C5aR1-HEK293
[14] = C028 0.1 µM, ΔGRK5/6-C5aR1-HEK293
[15] = C028 3 µM, Control-C5aR1-HEK293

For `N=C(N)NCCC[C@@H](NC(=O)[C@H](CC1CCCCC1)NC(=O)[C@@H](CC1CCCCC1)NC(=O)[C@@H]1CCCN1C(=O)[C@H](CCCCN)NC(=O)[C@@H](N)Cc1ccccc1)C(=O)O` [C028, FKP-(D-Cha)-Cha-r] (H-FKP[dCha][Cha][dR]-OH), the “OD405 max pT324/pS327-C5a1” value (C5a1 [1]) was 1.26, the “OD405 min pT324/pS327-C5a1” value (C5a1 [1]) was 0.01 and the “pT324/pS327 phosphorylation, normalized” value (C5a1 [1]; Control-C5aR1-HEK293, C028 0.01 µM) was 6.54% and 2.09% and 2.38% and -0.26% and 4.73% and 4.23% and 0.13% and 0.29%. The “pT324/pS327-C5aR1 Phosphorylation Assay, raw signal” value (C5a1 [1]; Control-C5aR1-HEK293, C028 0.1 µM) was 0.2603 and 0.2849 and 0.4452 and 0.4009 and 0.2355 and 0.392 and 0.2309 and 0.3621, the “pT324/pS327-C5aR1 Phosphorylation Assay, raw signal” value (C5a1 [1]; [4]) was 0.8349 and 0.7369 and 1.3757 and 1.2873 and 1.162 and 1.2785 and 0.8805 and 0.8562 and the “pT324/pS327 phosphorylation, normalized” value (C5a1 [1]; [4]) was 120.88% and 95.08% and 81.14% and 86.44% and 112.69% and 137.00% and 71.21% and 88.89%. For the same compound, the “pT324/pS327 phosphorylation, normalized” value (C5a1 [1]; [5]) was 119.78% and 104.86% and 86.39% and 115.09% and 117.11% and 104.93% and 106.33% and 104.22%, the Emax (C5a1 [1]; Control-HEK293) was 100% and the EC50 (C5a1 [1]; pEC50 pT324/pS327-C5a1, Control-HEK293) was 501 nM. For the same compound, the EC50 (C5a1 [1]; pEC50 pT324/pS327-C5a1, ΔGRK2/3-HEK293) was 631 nM, the “pT324/pS327-C5aR1 Phosphorylation Assay, raw signal” value (C5a1 [1]; [6]) was 0.1906 and 0.2011 and 0.1388 and 0.1623 and 0.1923 and 0.1741 and 0.2414 and 0.2236 and the “pT324/pS327 phosphorylation, normalized” value (C5a1 [1]; [6]) was 5.63% and 2.70% and -1.25% and 2.28% and 0.48% and 3.13% and 6.18% and 3.90%. The “pT324/pS327-C5aR1 Phosphorylation Assay, raw signal” value (C5a1 [1]; ΔGRK2/3-C5aR1-HEK293, C028 0.1 µM) was 0.3121 and 0.3742 and 0.1921 and 0.224 and 0.2885 and 0.3186 and 0.3064, the “pT324/pS327-C5aR1 Phosphorylation Assay, raw signal” value (C5a1 [1]; [7]) was 0.5648 and 0.5979 and 0.3035 and 0.3146 and 0.4385 and 0.4523 and 0.4291 and 0.4848 and the “pT324/pS327 phosphorylation, normalized” value (C5a1 [1]; [7]) was 24.79% and 33.69% and 32.00% and 35.01% and 19.88% and 27.63% and 33.40% and 34.58%. For the same compound, the “pT324/pS327 phosphorylation, normalized” value (C5a1 [1]; ΔGRK2/3-C5aR1-HEK293, C028 1 µM) was 57.50% and 41.29% and 46.21% and 58.02% and 41.79% and 38.21% and 68.95% and 53.84%, the “pT324/pS327-C5aR1 Phosphorylation Assay, raw signal” value (C5a1 [1]; ΔGRK2/3-C5aR1-HEK293, C028 3 µM) was 0.9175 and 0.9435 and 0.5986 and 0.5479 and 0.9015 and 0.9692 and 0.812 and 0.8433 and the “pT324/pS327-C5aR1 Phosphorylation Assay, raw signal” value (C5a1 [1]; [8]) was 0.9308 and 0.9846 and 0.7517 and 0.6067 and 1.0697 and 0.9407 and 1.15 and 0.9163. For the same compound, the “pT324/pS327 phosphorylation, normalized” value (C5a1 [1]; [8]) was 96.12% and 84.19% and 64.50% and 63.55% and 84.08% and 59.71% and 82.71% and 58.42%, the Emax (C5a1 [1]; ΔGRK2/3-HEK293) was 79.8% and the “pT324/pS327-C5aR1 Phosphorylation Assay, raw signal” value (C5a1 [1]; [9]) was 0.1198 and 0.124 and 0.1546 and 0.0999 and 0.1081 and 0.164 and 0.1821. The “pT324/pS327 phosphorylation, normalized” value (C5a1 [1]; [9]) was -1.74% and -1.49% and 1.46% and 0.52% and 6.96% and 2.95% and -0.44% and 0.0738%, the “pT324/pS327-C5aR1 Phosphorylation Assay, raw signal” value (C5a1 [1]; [10]) was 0.1319 and 0.1326 and 0.1302 and 0.1434 and 0.1164 and 0.1306 and 0.173 and 0.1664 and the “pT324/pS327 phosphorylation, normalized” value (C5a1 [1]; [10]) was -0.96% and 0.29% and 1.64% and 0.38% and 2.18% and 3.49% and 1.29% and 7.61%. The “pT324/pS327-C5aR1 Phosphorylation Assay, raw signal” value (C5a1 [1]; ΔGRK5/6-C5aR1-HEK293, C028 0.3 µM) was 0.1652 and 0.1629 and 0.1483 and 0.1906 and 0.1747 and 0.2126 and 0.1807, the Emax (C5a1 [1]; ΔGRK5/6-HEK293) was 27.8% and the “OD405 max pS332/pS334-C5a1” value (C5a1 [2]) was 1.06. For the same compound, the “OD405 min pS332/pS334-C5a1” value (C5a1 [2]) was 0.11, the pS332/pS334 normalized (C5a1 [2]; [5]) was 95.44% and 132.42% and 80.61% and 80.15% and 121.12% and 109.12% and 102.49% and 106.48% and the “pS332/pS334 (raw signal)” value (C5a1 [2]; Control-C5aR1-HEK293 run beside the ΔGRK2/3 block, C028 10 µM) was 0.7901 and 0.7373 and 0.8202 and 0.7545 and 1.029 and 1.2201. It also gave an Emax (C5a1 [2]; Control-HEK293) of 100%, an EC50 (C5a1 [2]; pEC50 pS332/pS334-C5a1, Control-HEK293) of 398 nM and an EC50 (C5a1 [2]; pEC50 pS332/pS334-C5a1, ΔGRK2/3-HEK293) of 501 nM. For the same compound, the “pS332/pS334 (raw signal)” value (C5a1 [2]; ΔGRK2/3-C5aR1-HEK293, C028 0.01 µM, concentration series) was 0.1764 and 0.1748 and 0.1484 and 0.1388 and 0.1181 and 0.1479 and 0.1441, the “pS332/pS334 (raw signal)” value (C5a1 [2]; ΔGRK2/3-C5aR1-HEK293, C028 1 µM, concentration series) was 0.699 and 0.3955 and 0.6071 and 0.387 and 0.4065 and 0.4411 and 0.6614 and 0.6847 and the “pS332/pS334 (raw signal)” value (C5a1 [2]; ΔGRK2/3-C5aR1-HEK293, C028 10 µM, first 0/10 µM column pair) was 0.4715 and 0.6645 and 0.5267 and 0.3753 and 0.6914 and 0.6912 and 0.5711 and 0.6282. The Emax (C5a1 [2]; ΔGRK2/3-HEK293) was 70.2%, the Emax (C5a1 [2]; ΔGRK5/6-HEK293) was 50.8% and the “OD405 max pS338/pT339-C5a1” value (C5a1 [3]) was 0.97. For the same compound, the “OD405 min pS338/pT339-C5a1” value (C5a1 [3]) was 0.05, the pS338/pS339 normalized (C5a1 [3]; [11]) was 0.99% and 0.92% and 2.21% and 3.33% and 1.14% and 2.13% and -1.29% and -0.74% and the “pS338/pS339 signal, raw” value (C5a1 [3]; [11]) was 0.1155 and 0.1223 and 0.1459 and 0.1501 and 0.1235 and 0.1345 and 0.146 and 0.1476. For the same compound, the pS338/pS339 normalized (C5a1 [3]; [12]) was 2.29% and 0.59% and -0.76% and -0.97% and -2.55% and -1.82% and -0.06% and 0.89%, the “pS338/pS339 signal, raw” value (C5a1 [3]; [12]) was 0.0952 and 0.0932 and 0.1355 and 0.1425 and 0.1714 and 0.1765 and 0.119 and 0.1119 and the pS338/pS339 normalized (C5a1 [3]; [13]) was -0.52% and 1.83% and 5.79% and 7.02% and 0.41% and 6.78% and -2.15% and -0.66%. The “pS338/pS339 signal, raw” value (C5a1 [3]; [13]) was 0.1914 and 0.1791 and 0.1104 and 0.1268 and 0.0959 and 0.1124 and 0.1275 and 0.1571, the “pS338/pS339 signal, raw” value (C5a1 [3]; C028 0.1 µM, Control-C5aR1-HEK293) was 0.1875 and 0.2099 and 0.2083 and 0.1715 and 0.263 and 0.2723 and 0.28 and 0.2721 and the pS338/pS339 normalized (C5a1 [3]; C028 0.1 µM, ΔGRK2/3-C5aR1-HEK293) was 4.55% and 4.75% and 2.09% and -0.74% and 0.95% and 1.57% and 2.54% and 3.37%. For the same compound, the pS338/pS339 normalized (C5a1 [3]; [14]) was 6.77% and 12.22% and 6.57% and 4.14% and 6.71% and 9.50% and 2.76% and 5.82%, the “pS338/pS339 signal, raw” value (C5a1 [3]; [14]) was 0.1912 and 0.1825 and 0.1703 and 0.1709 and 0.1421 and 0.1595 and 0.2215 and 0.2673 and the pS338/pS339 normalized (C5a1 [3]; [15]) was 78.61% and 86.74% and 85.12% and 75.44% and 123.11% and 90.88% and 72.00% and 99.45%. For the same compound, the “pS338/pS339 signal, raw” value (C5a1 [3]; [15]) was 0.8634 and 0.695 and 1.1554 and 0.7958 and 0.9051 and 1.0337 and 0.9787 and 0.9442, the pS338/pS339 normalized (C5a1 [3]; C028 10 µM, Control-C5aR1-HEK293, concentration series) was 92.58% and 105.20% and 87.15% and 107.72% and 114.82% and 97.73% and 96.48% and 106.05% and the “pS338/pS339 signal, raw” value (C5a1 [3]; C028 10 µM, Control-C5aR1-HEK293, last 0/10 µM pair of Control block) was 0.8171 and 0.9223 and 0.6743 and 0.8573 and 1.0399 and 1.1081. The “pS338/pS339 signal, raw” value (C5a1 [3]; C028 10 µM, Control-C5aR1-HEK293 beside ΔGRK5/6 block) was 1.1983 and 1.0585 and 0.7547 and 0.8921 and 1.3122 and 1.2783 and 1.4177 and 1.3015.
